These results are taken from EP4803520A1, “COMPOUND CONTAINING FUSED BICYCLIC RING, PHARMACEUTICAL COMPOSITION, AND USE THEREOF” (priority 2023, dated 2025).

Each structure is given as a SMILES string.

One may read the IC50 as the point on the concentration scale where inhibition reaches its midpoint.

T1 sequence (P09874 whole entry): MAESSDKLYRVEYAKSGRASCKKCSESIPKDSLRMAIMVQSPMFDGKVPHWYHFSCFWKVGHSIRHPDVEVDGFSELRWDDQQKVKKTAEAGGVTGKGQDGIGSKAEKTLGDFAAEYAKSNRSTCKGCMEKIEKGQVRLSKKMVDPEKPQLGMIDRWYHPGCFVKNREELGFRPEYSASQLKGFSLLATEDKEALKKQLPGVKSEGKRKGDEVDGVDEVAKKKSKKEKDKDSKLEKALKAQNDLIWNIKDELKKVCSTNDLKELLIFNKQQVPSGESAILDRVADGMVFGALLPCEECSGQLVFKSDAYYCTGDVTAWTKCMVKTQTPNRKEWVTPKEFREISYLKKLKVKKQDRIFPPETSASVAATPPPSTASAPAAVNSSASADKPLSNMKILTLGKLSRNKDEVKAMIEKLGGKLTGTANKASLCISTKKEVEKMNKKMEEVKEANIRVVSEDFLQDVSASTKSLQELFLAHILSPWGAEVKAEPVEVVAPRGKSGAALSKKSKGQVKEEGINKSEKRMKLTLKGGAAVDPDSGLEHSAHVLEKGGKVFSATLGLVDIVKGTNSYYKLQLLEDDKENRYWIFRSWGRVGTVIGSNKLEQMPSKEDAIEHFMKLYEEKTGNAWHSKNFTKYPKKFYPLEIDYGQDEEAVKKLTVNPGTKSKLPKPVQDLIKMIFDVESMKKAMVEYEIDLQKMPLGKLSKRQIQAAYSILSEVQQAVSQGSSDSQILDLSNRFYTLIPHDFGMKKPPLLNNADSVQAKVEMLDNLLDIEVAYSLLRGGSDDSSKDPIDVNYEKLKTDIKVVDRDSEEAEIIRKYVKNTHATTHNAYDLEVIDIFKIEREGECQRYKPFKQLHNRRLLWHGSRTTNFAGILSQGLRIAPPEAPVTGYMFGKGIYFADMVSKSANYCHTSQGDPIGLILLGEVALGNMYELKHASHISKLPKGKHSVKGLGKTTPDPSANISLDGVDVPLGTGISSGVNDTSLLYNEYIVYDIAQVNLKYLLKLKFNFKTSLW

One assay addresses T1, PARP1 (Homo sapiens, UniProt P09874). In words: Assay on PARP1 protein activity (chemiluminescence assay kit).
Settings: not given
The compound `CCc1cc2ccc(CN3C[C@H](N4Cc5cn(C(=O)NC)nc5C4)[C@@H]3C)cc2[nH]c1=O` [Compound 41] gave an IC50 of under 10 nM.

In the case of `CNC(=O)n1cc2c(n1)CN([C@H]1CN(Cc3ccc4cc(C5CC5)c(=O)[nH]c4c3)[C@H]1C)C2` [Compound 42], the half-maximal inhibitory concentration (IC50) is under 1 nM.

As for `CCc1cc2ncc(CN3C[C@H](N4Cc5cn(C(=O)NC)nc5C4)[C@@H]3C)cc2[nH]c1=O` [Compound 47], the IC50 is under 1 nM. `CNC(=O)n1cc2c(n1)CN(C1CN(Cc3ccc4c(C)c(C(F)(F)F)c(=O)[nH]c4c3)C1)C2` [Compound 50] displayed an IC50 of under 1 nM. On the same count and under the same terms, for `CNC(=O)n1cc2c(n1)CN([C@H]1CN(Cc3ccc4c(C)c(C(F)(F)F)c(=O)[nH]c4c3)[C@H]1C)C2` [Compound 54] the value was under 1 nM.

The subject of another assay is MDA-MB-436 cells. In words: Assay on inhibitory activity for MDA-MB-436 cell proliferation (CCK-8). In kind it is cell-based. Conditions: 168 h of incubation, CCK-8, absorbance at 450 nm. The method, then: MDA-MB-436 cells in a good growth state were collected into a centrifuge tube, adjusted to a cell density of 2 × 10^4 cells/mL using a complete medium (DMEM high glucose + 10% FBS + 1× insulin-transferrin-selenium (ITS-G) + 16 µg/mL reduced glutathione), and seeded in a 96-well plate (100 µL/well), and the plate was incubated overnight in a cell incubator. Compounds were added using a pipettor, such that the final concentrations of the compounds were 400 nM-0.02 nM. The wells were set in duplicate, and a control well was set. After 168 h of incubation in the cell incubator, the assay reagent CCK-8 (manufacturer: Dojindo Laboratories, Beijing; 10 µL/well) was added. After 1.5 h of incubation in the cell incubator, the absorbance values were measured at 450 nm on a PerkinElmer Envision microplate reader. […] Inhibitory activity results for DA-MB-436 cell proliferation of compounds
Turning to `CCc1cc2ccc(CN3CC(N4Cc5cn(C(=O)NC)nc5C4)C3)cc2[nH]c1=O` [Compound 1], the IC50 is at most 50 nM. `CCc1cc2ccc(CN3CC(N4Cc5cn(C(=O)NC6CC6)nc5C4)C3)cc2[nH]c1=O` [Compound 4] yielded an IC50 of at most 50 nM. The same measure, in the same setting: for `CCc1cc2ncc(CN3CC(N4Cc5cn(C(=O)NC6CC6)nc5C4)C3)cc2[nH]c1=O` [Compound 5] the value was at most 50 nM. On the same count and under the same terms, for `CCc1cc2ncc(CN3CC(N4Cc5nc(C(=O)NC)sc5C4)C3)cc2[nH]c1=O` [Compound 7] the value was at most 50 nM; for `CCc1cc2ccc(CN3CC(N4Cc5cn(C(=O)NC(C)C)nc5C4)C3)cc2[nH]c1=O` [Compound 9], at most 50 nM. Still for that read-out and setting: for `CCc1cc2ncc(CN3CC(N4Cc5cn(C(=O)NC)nc5C4)C3)cc2[nH]c1=O` [Compound 10] the value was at most 50 nM.

In turn, `O=C(NC1CC1)n1cc2c(n1)CN(C1CN(Cc3ccc4cc(C5CC5)c(=O)[nH]c4c3)C1)C2` [Compound 11] returned an IC50 of at most 50 nM.

Take `CCNC(=O)n1cc2c(n1)CN(C1CN(Cc3ccc4cc(CC)c(=O)[nH]c4c3)C1)C2` [Compound 13]: the IC50 was at most 50 nM. On the same count and under the same terms, for `CNC(=O)n1cc2c(n1)CN(C1CN(Cc3ccc4c5c(c(=O)[nH]c4c3)CCC5)C1)C2` [Compound 15] the value was at most 50 nM. `CCc1cc2c(F)cc(CN3CC(N4Cc5cn(C(=O)NC)nc5C4)C3)cc2[nH]c1=O` [Compound 16]: the IC50 was at most 50 nM.

`CNC(=O)n1cc2c(n1)CN([C@@H]1CN(Cc3ccc4cc(C5CC5)c(=O)[nH]c4c3)[C@H]1C)C2` [Compound 43] had a half-inhibitory concentration (IC50) of at most 50 nM.

The assay is the same for the next values; noted with them: Homo sapiens, MDA-MB-436; 168 h of incubation, CCK-8, absorbance at 450 nm.
As to `CNC(=O)n1cc2c(n1)CN(C1CN(Cc3ccc4cc(C(F)(F)F)c(=O)[nH]c4c3)[C@@H]1C)C2` (single isomer, unassigned) [Compound 35], the IC50 is at most 50 nM.

With `CNC(=O)n1cc2c(n1)CN(C1CN(Cc3ccc4cc(C5CC5)c(=O)[nH]c4c3)[C@@H]1C)C2` (single isomer, unassigned) [Compound 40], the IC50 is at most 50 nM. Same read-out and setting: the same measure for `CNC(=O)n1cc2c(n1)CN(C1CN(Cc3ccc4cc(C5CC5)c(=O)[nH]c4c3)C1)C2` [Compound 2]: at most 50 nM; for `CCc1cc2ccc(CN3CC(N4Cc5cn(C(=O)N[C@@H]6CCOC6)nc5C4)C3)cc2[nH]c1=O` [Compound 17]: at most 50 nM; for `CCc1cc2cc(F)c(CN3CC(N4Cc5cn(C(=O)NC)nc5C4)C3)cc2[nH]c1=O` [Compound 18]: at most 50 nM.

On to `CCc1cc2ccc(CN3CC(N4Cc5nc(C(=O)NC)sc5C4)C3)cc2[nH]c1=O` [Compound 19], for which the IC50 is at most 50 nM.

`CCc1cc2c(F)cc(CN3CC(N4Cc5cn(C(=O)NC6CC6)nc5C4)C3)cc2[nH]c1=O` [Compound 20]: the IC50 was at most 50 nM. The same measure, in the same setting: the same measure for `CCc1cc2c(F)cc(CN3CC(N4Cc5nc(C(=O)NC)sc5C4)C3)cc2[nH]c1=O` [Compound 21]: at most 50 nM; for `CNC(=O)n1cc2c(n1)CN(C1CN(Cc3ccc4cc(C)c(=O)[nH]c4c3)C1)C2` [Compound 22]: at most 50 nM; for `Cc1cc2ccc(CN3CC(N4Cc5cn(C(=O)NC6CC6)nc5C4)C3)cc2[nH]c1=O` [Compound 23]: at most 50 nM. Still for that read-out and setting: the same measure for `CNC(=O)n1cc2c(n1)CN(C1CN(Cc3ccc4cc(C(F)(F)F)c(=O)[nH]c4c3)C1)C2` [Compound 24]: at most 50 nM; for `CCc1cc2c(Cl)cc(CN3CC(N4Cc5cn(C(=O)NC)nc5C4)C3)cc2[nH]c1=O` [Compound 25]: at most 50 nM. Same read-out and setting: for `CNC(=O)n1cc2c(n1)CN(C1CN(Cc3ccc4cc(Cl)c(=O)[nH]c4c3)C1)C2` [Compound 26] the value was at most 50 nM; for `CNC(=O)c1nc2c(s1)CN(C1CN(Cc3ccc4cc(Cl)c(=O)[nH]c4c3)C1)C2` [Compound 27], at most 50 nM. Regarding `CNC(=O)c1nc2c(s1)CN(C1CN(Cc3ccc4cc(C(F)(F)F)c(=O)[nH]c4c3)C1)C2` [Compound 28], the 50% inhibitory concentration (IC50) is at most 50 nM. The same measure, in the same setting: the same measure for `CCc1cc2ccc(CN3CC(N4Cc5cn(C(=O)NC)nc5C4)C3)c(F)c2[nH]c1=O` [Compound 29]: at most 50 nM; for `CCc1cc2ccc(CN3CC(N4Cc5nc(C(=O)NC)sc5C4)C3)c(F)c2[nH]c1=O` [Compound 30]: at most 50 nM. On the same count and under the same terms, the same measure for `CNC(=O)c1nc2c(s1)CN(C1CN(Cc3ccc4cc(C5CC5)c(=O)[nH]c4c3)C1)C2` [Compound 31]: at most 50 nM; for `CNC(=O)c1cc2c(s1)CN(C1CN(Cc3ccc4cc(C(F)(F)F)c(=O)[nH]c4c3)C1)C2` [Compound 33]: at most 50 nM; for `CNC(=O)n1cc2c(n1)CN(C1CN(Cc3ccc4c(c3)[nH]c(=O)n3cccc43)C1)C2` [Compound 34]: at most 50 nM. Same read-out and setting: for `CNC(=O)n1cc2c(n1)CN([C@H]1CN(Cc3ccc4cc(C(F)(F)F)c(=O)[nH]c4c3)[C@H]1C)C2` [Compound 36] the value was at most 50 nM; for `CCc1cc2ccc(CN3C[C@H](N4Cc5cn(C(=O)NC)nc5C4)[C@@H]3C)cc2[nH]c1=O` [Compound 41], at most 50 nM.

`CNC(=O)n1cc2c(n1)CN([C@H]1CN(Cc3ccc4cc(C5CC5)c(=O)[nH]c4c3)[C@H]1C)C2` [Compound 42]: the IC50 is at most 50 nM. For the compound `CCc1nc2ccc(CN3C[C@H](N4Cc5cn(C(=O)NC)nc5C4)[C@@H]3C)cc2[nH]c1=O` [Compound 45], the IC50 is at most 50 nM. In turn, `CCc1cc2ncc(CN3C[C@H](N4Cc5cn(C(=O)NC)nc5C4)[C@@H]3C)cc2[nH]c1=O` [Compound 47] had an IC50 of at most 50 nM. On the same count and under the same terms, the same measure for `CNC(=O)n1cc2c(n1)CN(C1CN(Cc3ccc4c(C)c(C(F)(F)F)c(=O)[nH]c4c3)C1)C2` [Compound 50]: at most 50 nM; for `CCc1nc2ccc(CN3C[C@H](N4Cc5cn(C(=O)NC)nc5C4)[C@@H]3C)c(F)c2[nH]c1=O` [Compound 51]: at most 50 nM. Same read-out and setting: for `CNC(=O)n1cc2c(n1)CN([C@H]1CN(Cc3ccc4c(C)c(C(F)(F)F)c(=O)[nH]c4c3)[C@H]1C)C2` [Compound 54] the value was at most 50 nM.

A further assay has as its target T1, PARP1. In words: PARP1-Tracer activity assay (FP method). Type of assay: binding. More on the design: purchased BPS 80551. Conditions: ratio of PARP2 IC50 to PARP1 IC50, FP method. Here is the method:
The enzyme inhibition activity of the compounds against PARP1/2-Tracer was tested using the FP method. First, 100 nL of inhibitors with a final concentration of 1% DMSO were transferred to a 384-well reaction plate (Corning 4514) using Echo655. Then, 5 µL of a PARP1/2 (BPS, Cat. No. 80501/80502) enzyme solution was added to each well, followed by centrifugation at 1000 RPM for 1 min at room temperature, and the reaction was allowed to proceed for 10 min. Subsequently, 5 µL of a Tracer (ICE, Cat. No. 001315-009) solution was added to each well, followed by centrifugation at 1000 RPM for 1 min at room temperature, and the reaction was allowed to proceed for 60 min. PARP1/2 and Tracer were prepared in a buffer containing 50 mM Tris (pH 8.0), 10 mM MgCl2, 150 mM NaCl, and 0.001% Triox-100, with final concentrations of 5/10 nM and 2.5 nM, respectively. Finally, the FP signal was read using BMG (PHERAstar FSX), and the IC50 values and nonlinear regression curve fitting were obtained using GraphPad Prism software.
For `CNC(=O)n1cc2c(n1)CN(C1CN(Cc3ccc4cc(C(F)(F)F)c(=O)[nH]c4c3)C1)C2` [Compound 24], the “PARP2/PARP 1 selectivity” value was over 200 fold.

On to `CCc1nc2ccc(CN3C[C@H](N4Cc5cn(C(=O)NC)nc5C4)[C@@H]3C)cc2[nH]c1=O` [Compound 45], for which the “PARP2/PARP 1 selectivity” value is listed as over 200 fold.
